Results reported in publication PMC11421850, “Identification of pharmacological inducers of a reversible hypometabolic state for whole organ preservation” (eLife, 2024).

Target: T1, delta opioid receptor (DOR) (Homo sapiens, UniProt P41143)
T1 construct: gene OPRD1
Experiment: biochemical

T1 sequence (P41143 whole entry): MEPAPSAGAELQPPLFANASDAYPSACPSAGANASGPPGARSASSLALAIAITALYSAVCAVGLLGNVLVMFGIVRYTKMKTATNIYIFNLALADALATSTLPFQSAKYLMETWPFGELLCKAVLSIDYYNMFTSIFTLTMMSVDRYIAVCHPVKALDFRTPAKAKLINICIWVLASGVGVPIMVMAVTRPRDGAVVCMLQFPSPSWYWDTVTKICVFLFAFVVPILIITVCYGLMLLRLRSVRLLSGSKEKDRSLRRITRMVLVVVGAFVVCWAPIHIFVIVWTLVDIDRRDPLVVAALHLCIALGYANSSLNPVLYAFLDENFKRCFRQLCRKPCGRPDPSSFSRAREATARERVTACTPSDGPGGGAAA

SMILES: CCN(CC)C(=O)c1ccc([C@H](c2cccc(OC)c2)N2C[C@@H](C)OC[C@@H]2C)cc1 [WB3]
- IC50: 3.47 µM
